Reference: patent US10752613B2, “Compounds and their use for reducing uric acid levels” (Acquist LLC, priority 2016, dated 2020)
“Also recorded” adds a separate entry of the source.

Biological target: xanthine oxidase (Homo sapiens (Human), UniProt P47989)
Experiment: Fluorescence-based xanthine oxidase activity assay
Assay type: biochemical
Conditions: for IC50: fluorescence-based assay, triplicate, 10 concentrations; for Xanthine oxidase inhibition compared with allopurinol: comparison in words

xanthine oxidase, sequence (P47989 whole entry, species assumed): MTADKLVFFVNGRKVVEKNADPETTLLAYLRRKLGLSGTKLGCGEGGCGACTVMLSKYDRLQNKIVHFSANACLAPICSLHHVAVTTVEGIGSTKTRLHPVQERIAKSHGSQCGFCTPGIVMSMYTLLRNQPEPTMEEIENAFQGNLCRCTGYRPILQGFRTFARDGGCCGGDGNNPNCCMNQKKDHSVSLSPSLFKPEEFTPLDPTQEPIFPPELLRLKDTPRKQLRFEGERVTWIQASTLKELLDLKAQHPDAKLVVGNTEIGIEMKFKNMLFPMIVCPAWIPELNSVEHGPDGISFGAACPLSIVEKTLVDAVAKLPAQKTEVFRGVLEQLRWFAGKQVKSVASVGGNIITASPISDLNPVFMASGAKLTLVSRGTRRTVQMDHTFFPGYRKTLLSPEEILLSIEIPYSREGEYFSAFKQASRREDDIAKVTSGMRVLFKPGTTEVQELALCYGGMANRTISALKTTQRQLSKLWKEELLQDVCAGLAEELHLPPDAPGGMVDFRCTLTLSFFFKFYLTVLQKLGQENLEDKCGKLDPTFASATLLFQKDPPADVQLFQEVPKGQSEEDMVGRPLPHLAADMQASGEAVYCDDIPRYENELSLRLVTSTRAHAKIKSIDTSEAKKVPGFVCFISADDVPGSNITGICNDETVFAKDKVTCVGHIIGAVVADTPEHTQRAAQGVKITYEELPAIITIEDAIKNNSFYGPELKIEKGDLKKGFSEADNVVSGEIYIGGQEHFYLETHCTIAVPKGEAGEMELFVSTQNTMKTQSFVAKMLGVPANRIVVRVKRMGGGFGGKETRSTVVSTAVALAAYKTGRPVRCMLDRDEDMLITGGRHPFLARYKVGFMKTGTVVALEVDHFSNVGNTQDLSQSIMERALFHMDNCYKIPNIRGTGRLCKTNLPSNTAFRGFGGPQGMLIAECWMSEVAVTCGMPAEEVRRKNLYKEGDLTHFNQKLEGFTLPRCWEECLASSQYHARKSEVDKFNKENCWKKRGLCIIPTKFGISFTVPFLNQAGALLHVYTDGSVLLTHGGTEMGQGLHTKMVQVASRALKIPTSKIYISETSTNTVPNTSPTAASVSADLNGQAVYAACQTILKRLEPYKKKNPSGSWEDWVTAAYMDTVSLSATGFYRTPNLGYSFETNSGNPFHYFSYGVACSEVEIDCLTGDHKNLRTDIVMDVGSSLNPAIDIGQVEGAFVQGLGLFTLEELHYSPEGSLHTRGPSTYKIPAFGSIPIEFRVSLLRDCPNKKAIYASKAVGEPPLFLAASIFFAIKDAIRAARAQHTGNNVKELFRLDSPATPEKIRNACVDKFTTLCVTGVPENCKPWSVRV

## O=C(Nc1cccc(-c2cn[nH]n2)c1)c1c(O)[nH]c(=O)[nH]c1=O [Formula (Ia), N-(3-(1H-1,2,3-triazol-5-yl)phenyl)-6-hydroxy-2,4-dioxo-1,2,3,4-tetrahydropyrimidine-5-carboxamide]
  IC50: 6.5 µM

## O=C(Nc1ccc(-c2nn[nH]c2-c2ccccc2)cc1)c1c(O)[nH]c(=O)[nH]c1=O [Formula (Ic), 6-hydroxy-2,4-dioxo-N-(4-(4-phenyl-1H-1,2,3-triazol-5-yl)phenyl)-1,2,3,4-tetrahydropyrimidine-5-carboxamide]
  IC50: 12.2 µM

## O=C(Nc1ccc(-c2nc(C(F)(F)F)n[nH]2)cc1)c1c(O)[nH]c(=O)[nH]c1=O [Formula (Ie), 6-hydroxy-2,4-dioxo-N-(4-(3-(trifluoromethyl)-1H-1,2,4-triazol-5-yl)phenyl)-1,2,3,4-tetrahydropyrimidine-5-carboxamide]
  IC50: 14.5 µM

## O=C(Nc1ccc(-c2cn[nH]c2)cc1)c1c(O)[nH]c(=O)[nH]c1=O [Formula (If), N-(4-(1H-pyrazol-4-yl)phenyl)-6-hydroxy-2,4-dioxo-1,2,3,4-tetrahydropyrimidine-5-carboxamide]
  IC50: 70.1 µM

## O=C(Nc1ccc(-c2c[nH]nn2)c(C(F)(F)F)c1)c1c(O)[nH]c(=O)[nH]c1=O [Formula (Ig), N-(4-(1H-1,2,3-triazol-5-yl)-3-(trifluoromethyl)phenyl)-6-hydroxy-2,4-dioxo-1,2,3,4-tetrahydropyrimidine-5-carboxamide]
  Xanthine oxidase inhibition compared with allopurinol: comparable to allopurinol
  IC50: 2.2 µM

## O=C(Nc1ccc(-c2c[nH]nn2)cc1C(F)(F)F)c1c(O)[nH]c(=O)[nH]c1=O [Formula (Ih), N-(4-(1H-1,2,3-triazol-5-yl)-2-(trifluoromethyl)phenyl)-6-hydroxy-2,4-dioxo-1,2,3,4-tetrahydropyrimidine-5-carboxamide]
  Xanthine oxidase inhibition compared with allopurinol: more potent inhibitors of xanthine oxidase than allopurinol; also recorded: comparable to allopurinol
  IC50: 1.2 µM

## O=C(Nc1ccc(-c2cc(O)n[nH]2)cc1)c1c(O)[nH]c(=O)[nH]c1=O [Formula (Ii), 6-hydroxy-N-(4-(3-hydroxy-1H-pyrazol-5-yl)phenyl)-2,4-dioxo-1,2,3,4-tetrahydropyrimidine-5-carboxamide]
  Xanthine oxidase inhibition compared with allopurinol: more potent inhibitors of xanthine oxidase than allopurinol
  IC50: 1.3 µM

## O=C(Nc1ccc(-c2cn[nH]c2C(F)(F)F)cc1)c1c(O)[nH]c(=O)[nH]c1=O [Formula (Ij), 6-hydroxy-2,4-dioxo-N-(4-(5-(trifluoromethyl)-1H-pyrazol-4-yl)phenyl)-1,2,3,4-tetrahydropyrimidine-5-carboxamide]
  IC50: 16.3 µM

## O=C(Nc1ccc(-n2cc(C(F)(F)F)cn2)cc1)c1c(O)[nH]c(=O)[nH]c1=O [Formula (Ik), 6-hydroxy-2,4-dioxo-N-(4-(4-(trifluoromethyl)-1H-pyrazol-1-yl)phenyl)-1,2,3,4-tetrahydropyrimidine-5-carboxamide]
  IC50: 68 µM

## O=C(Nc1ccc(-c2cc(C(F)(F)F)n[nH]2)cc1)c1c(O)[nH]c(=O)[nH]c1=O [Formula (Il), 6-hydroxy-2,4-dioxo-N-(4-(3-(trifluoromethyl)-1H-pyrazol-5-yl)phenyl)-1,2,3,4-tetrahydropyrimidine-5-carboxamide]
  IC50: 67.9 µM

## O=C(Nc1ccc(-c2[nH]ncc2C(F)(F)F)cc1)c1c(O)[nH]c(=O)[nH]c1=O [Formula (Im), 6-hydroxy-2,4-dioxo-N-(4-(4-(trifluoromethyl)-1H-pyrazol-5-yl)phenyl)-1,2,3,4-tetrahydropyrimidine-5-carboxamide]
  IC50: 25.2 µM
